Results on 23 molecules are retold here after patent US20080207705A1, “Heteroaryl-Imidazole Derivatives as Cannabinoid CB1 Receptor Antagonists” (Green Cross Corporation, priority 2007, published 2008).

For the first assay, the target named is T1, rat CB-1 receptor (Rattus norvegicus, UniProt P20272).
T1 construct: The tissue obtained from the brain of SD rats was homogenized; from tissue; host or cells: brain of SD rats (membrane pellet of homogenate)
T1 sequence (P20272 whole entry): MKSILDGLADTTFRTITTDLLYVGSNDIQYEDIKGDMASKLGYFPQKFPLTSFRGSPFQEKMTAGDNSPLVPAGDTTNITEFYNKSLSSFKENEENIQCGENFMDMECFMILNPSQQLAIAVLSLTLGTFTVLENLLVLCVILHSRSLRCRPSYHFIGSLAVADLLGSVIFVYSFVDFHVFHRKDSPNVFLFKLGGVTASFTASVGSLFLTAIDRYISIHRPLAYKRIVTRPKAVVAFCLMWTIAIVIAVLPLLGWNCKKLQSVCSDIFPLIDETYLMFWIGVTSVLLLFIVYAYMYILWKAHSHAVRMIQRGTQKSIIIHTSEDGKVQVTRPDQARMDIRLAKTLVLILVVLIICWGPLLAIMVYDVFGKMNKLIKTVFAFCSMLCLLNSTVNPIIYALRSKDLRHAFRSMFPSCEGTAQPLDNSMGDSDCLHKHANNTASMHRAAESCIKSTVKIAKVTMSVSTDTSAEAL
In words: rat CB-1 receptor binding protocol with [3H]CP-55940.
Conditions: not given
The molecule `CCc1c(-c2nnc(C3(C(F)(F)F)CCC3)o2)nc(-c2ccccc2Cl)n1-c1ccc(Br)cc1` [Example 57, 2-(1-(4-Bromophenyl)-2-(2-chlorophenyl)-5-ethyl-1H-imidazol-4-yl)-5-(1-(trifluoromethyl)cyclobutyl)-1,3,4-oxadiazole] displayed an IC50 of 13.4 nM.

The assay is the same for the next values; noted with them: [3H]CP-55940, brain tissue of SD rats, 30 °C for 60 min; read-out: IC50.
For the molecule `CCc1c(-c2nnc(C3CCC3)s2)nc(-c2ccc(Cl)cc2Cl)n1-c1ccc(Cl)cc1` [Example 103, 2-(1-(4-Chlorophenyl)-2-(2,4-dichlorophenyl)-5-ethyl-1H-imidazol-4-yl)-5-cyclobutyl-1,3,4-thiadiazole], the IC50 turned out to be 16.1 nM.
On the same count and under the same terms, next, `CCCc1c(-c2nnc(C3CCCCC3)s2)nc(-c2ccc(Cl)cc2Cl)n1-c1ccc(Br)cc1` [Example 120, 2-(1-(4-Bromophenyl)-2-(2,4-dichlorophenyl)-5-propyl-1H-imidazol-4-yl)-5-cyclohexyl-1,3,4-thiadiazole]: 44.3 nM; `Cc1c(-c2nc(C(C)(C)C)co2)nc(-c2ccc(Cl)cc2Cl)n1-c1ccc(Cl)cc1` [Example 189, 4-tert-Butyl-2-(1-(4-chlorophenyl)-2-(2,4-dichlorophenyl)-5-methyl-1H-imidazol-4-yl)oxazole]: 88.3 nM; `FC(F)(F)C1(c2nnc(-c3nc(-c4ccccc4Cl)n(-c4ccc(Br)cc4)c3Cn3cncn3)s2)CCC1` [Example 170, 2-(5-((1H-1,2,4-Triazol-1-yl)methyl)-1-(4-bromophenyl)-2-(2-chlorophenyl)-1H-imidazol-4-yl)-5-(1-(trifluoromethyl)cyclobutyl)-1,3,4-thiadiazole]: 1.75 nM.
Take `CCc1c(-c2ncc(C(C)(C)C)s2)nc(-c2ccc(Cl)cc2Cl)n1-c1ccc(Br)cc1` [Example 201, 2-(1-(4-Bromophenyl)-2-(2,4-dichlorophenyl)-5-ethyl-1H-imidazol-4-yl)-5-tert-butylthiazole]: the IC50 was 10.5 nM.
Still for that read-out and setting: the figure for `CCCc1c(-c2nnc(C3(c4ccccc4)CC3)o2)nc(-c2ccc(Cl)cc2Cl)n1-c1ccc(Br)cc1` [Example 31, 2-(1-(4-Bromophenyl)-2-(2,4-dichlorophenyl)-5-propyl-1H-imidazol-4-yl)-5-(1-phenylcyclopropyl)-1,3,4-oxadiazole] is 46.1 nM; for `Cc1c(-c2nnc(C3(C(F)(F)F)CC3)s2)nc(-c2ccc(Cl)cc2Cl)n1-c1ccc(Br)cc1` [Example 136, 2-(1-(4-Bromophenyl)-2-(2,4-dichlorophenyl)-5-methyl-1H-imidazol-4-yl)-5-(1-(trifluoromethyl)cyclopropyl)-1,3,4-thiadiazole] it is 47.1 nM.
As to `CCc1c(-c2nc(C(C)(C)C)co2)nc(-c2ccc(Cl)cc2Cl)n1-c1ccc(Br)cc1` [Example 191, 2-(1-(4-Bromophenyl)-2-(2,4-dichlorophenyl)-5-ethyl-1H-imidazol-4-yl)-4-tert-butyloxazole], the IC50 came to 30 nM.
Still for that read-out and setting: the figure for `Clc1ccc(C2(c3nnc(-c4nc(-c5ccc(Cl)cc5Cl)n(-c5ccc(Br)cc5)c4Cn4cncn4)o3)CC2)cc1` [Example 77, 2-(5-((1H-1,2,4-Triazol-1-yl)methyl)-1-(4-bromophenyl)-2-(2,4-dichlorophenyl)-1H-imidazol-4-yl)-5-(1-(4-chlorophenyl)cyclopropyl)-1,3,4-oxadiazole] is 3.36 nM; for `CC(C)(C)c1nnc(-c2nc(-c3ccc(Cl)cc3Cl)n(-c3ccc(Cl)cc3)c2Cn2cncn2)o1` [Example 87, 2-(5-((1H-1,2,4-Triazol-1-yl)methyl)-1-(4-chlorophenyl)-2-(2,4-dichlorophenyl)-1H-imidazol-4-yl)-5-tert-butyl-1,3,4-oxadiazole] it is 12 nM.
As for `Cc1c(-c2ncc(C3CCCCC3)s2)nc(-c2ccc(Cl)cc2Cl)n1-c1ccc(Cl)cc1` [Example 193, 2-(1-(4-Chlorophenyl)-2-(2,4-dichlorophenyl)-5-methyl-1H-imidazol-4-yl)-5-cyclohexylthiazole], the IC50 worked out at 74.5 nM.
Still for that read-out and setting: the figure for `CCc1sc(-c2nc(-c3ccc(Cl)cc3Cl)n(-c3ccc(Cl)cc3)c2C)nc1C` [Example 202, 2-(1-(4-Chlorophenyl)-2-(2,4-dichlorophenyl)-5-methyl-1H-imidazol-4-yl)-5-ethyl-4-methylthiazole] is 90.2 nM; for `FC(F)(F)C1(c2nnc(-c3nc(-c4ccccc4Cl)n(-c4ccc(Br)cc4)c3Cn3cncn3)o2)CCC1` [Example 80, 2-(5-((1H-1,2,4-Triazol-1-yl)methyl)-1-(4-bromophenyl)-2-(2-chlorophenyl)-1H-imidazol-4-yl)-5-(1-(trifluoromethyl)cyclobutyl)-1,3,4-oxadiazole] it is 3.36 nM.
Same read-out and setting: next, `CCc1cnc(-c2nc(-c3ccc(Cl)cc3Cl)n(-c3ccc(Cl)cc3)c2C)o1` [Example 181, 2-(1-(4-Chlorophenyl)-2-(2,4-dichlorophenyl)-5-methyl-1H-imidazol-4-yl)-5-ethyloxazole]: 84 nM; `CCc1c(-c2nnc(C3(C(F)(F)F)CC3)o2)nc(-c2ccccc2Cl)n1-c1ccc(Br)cc1` [Example 56, 2-(1-(4-Bromophenyl)-2-(2-chlorophenyl)-5-ethyl-1H-imidazol-4-yl)-5-(1-(trifluoromethyl)cyclopropyl)-1,3,4-oxadiazole]: 20.1 nM; `CCc1c(-c2nnc(C3(c4ccc(Cl)cc4)CCC3)o2)nc(-c2ccc(Cl)cc2Cl)n1-c1ccc(Br)cc1` [Example 41, 2-(1-(4-Bromophenyl)-2-(2,4-dichlorophenyl)-5-ethyl-1H-imidazol-4-yl)-5-(1-(4-chlorophenyl)cyclobutyl)-1,3,4-oxadiazole]: 13.6 nM.
Turning to `CCc1c(-c2nnc(C3CCC3)s2)nc(-c2ccc(Cl)cc2Cl)n1-c1ccc(Br)cc1` [Example 112, 2-(1-(4-Bromophenyl)-2-(2,4-dichlorophenyl)-5-ethyl-1H-imidazol-4-yl)-5-cyclobutyl-1,3,4-thiadiazole], the IC50 is 14 nM.
With `CCc1c(-c2nnc(C3(c4ccc(Cl)cc4)CCCC3)s2)nc(-c2ccc(Cl)cc2Cl)n1-c1ccc(Br)cc1` [Example 135, 2-(1-(4-Bromophenyl)-2-(2,4-dichlorophenyl)-5-ethyl-1H-imidazol-4-yl)-5-(1-(4-chlorophenyl)cyclopentyl)-1,3,4-thiadiazole], the IC50 was found to be 1.87 nM.
For the molecule `Cc1c(-c2nnc(C(C)C)s2)nc(-c2ccc(Cl)cc2Cl)n1-c1ccc(Cl)cc1` [Example 98, 2-(1-(4-Chlorophenyl)-2-(2,4-dichlorophenyl)-5-methyl-1H-imidazol-4-yl)-5-isopropyl-1,3,4-thiadiazole], the IC50 came to 22.2 nM.
Still for that read-out and setting: next, `CCC(CC)c1nnc(-c2nc(-c3ccc(Cl)cc3Cl)n(-c3ccc(Cl)cc3)c2C)s1` [Example 99, 2-(1-(4-Chlorophenyl)-2-(2,4-dichlorophenyl)-5-methyl-1H-imidazol-4-yl)-5-(pentan-3-yl)-1,3,4-thiadiazole]: 19.7 nM; `CCCCc1cnc(-c2nc(-c3ccc(Cl)cc3Cl)n(-c3ccc(Cl)cc3)c2C)s1` [Example 195, 5-Butyl-2-(1-(4-chlorophenyl)-2-(2,4-dichlorophenyl)-5-methyl-1H-imidazol-4-yl)thiazole]: 63.3 nM; `CCCc1c(-c2nnc(C(C)(C)C)o2)nc(-c2ccc(Cl)cc2Cl)n1-c1ccc(Cl)cc1` [Example 35, 2-tert-Butyl-5-(1-(4-chlorophenyl)-2-(2,4-dichlorophenyl)-5-propyl-1H-imidazol-4-yl)-1,3,4-oxadiazole]: 18.9 nM.
